Measurements taken from patent US9309238B2, “Imidazo [1,2-a]pyridine compounds, synthesis thereof, and methods of using same” (priority 2009, dated 2016).
Values after ≈ are worked out from the molar mass of the structure shown. Values joined by “and” are separate entries in the source; they are usually repeats but may differ in a detail not shown here. Identical values can stand only once. Like-named read-outs stand apart in the source and are kept apart here.

What was measured:
M. smegmatis = test: cross screen against M. smegmatis; format: cell-based; details: Mycolicibacterium smegmatis
M. kansasii = test: NTM activity, M. kansasii; format: cell-based
M. marinum = test: NTM activity, M. marinum; format: cell-based
M. bovis BCG = test: NTM activity, M. bovis BCG; format: cell-based
M. chelonae = test: NTM activity, M. chelonae; format: cell-based
M. avium = test: NTM activity, M. avium; format: cell-based
TB = details: strain not stated; cited from earlier work
H37Rv TB [1] = details: current TB clinical candidates; cited from earlier work
MDR-TB [2] = details: current TB clinical candidates; cited from earlier work
[3] = tested on: panel of diverse organisms (Gram-positive and Gram-negative strains, yeast, fungi, cancer cell lines, VERO cell line); test: screen against a panel of diverse control organisms and cell lines; format: cell-based; details: B. subtilis, S. aureus, MRSA, VRE E. faecalis, E. coli, P. aeruginosa, S. salmonicolor, C. albicans, P. notatum, Huvec, K-562, HeLa, PC-3, MCF-7, VERO
Text: In embodiments, compounds ND-8448, ND-8451 and ND-8454 were all screened against a panel of diverse organisms which included four Gram-positive strains (Bacillus subtilis, Staphylococcus aureus, MRSA Staphylococcus aureus, VRE Enterococcus Faecalis), two Gram-negative strains (E. coli, Pseudomonas aeruginosa), a yeast (Sporobolomyces salmonicolor) and fungi (Candida albicans and Penicillium notatum), as well as five cancer cell lines (Huvec, K-562, HeLa, PC-3 and MCF-7) and the VERO cell line to check for mammalian toxicity.

H37Rv TB [4] = test: in vitro activity against H37Rv TB (MIC); format: cell-based; details: Mycobacterium tuberculosis
HeLa cells = test: toxicity to HeLa cells; format: cell-based
[5] = tested on: VERO cells (African Green Monkey epithelial kidney cells); test: VERO cellular toxicity assay; format: cell-based; details: Chlorocebus sabaeus
MDR-TB [6] = test: MIC against MDR-TB (Table 1); format: cell-based; details: Mycobacterium tuberculosis
[7] = Mycobacterium tuberculosis variant bovis BCG, BCG

With `Cc1ccn2c(C(=O)NCc3cccc(F)c3)c(C)nc2c1` [ND-9361] as the molecule, how does the MIC90 (M. smegmatis) read?
The MIC90 was no less than 5 µg/mL.

With `Cc1ccn2c(C(=O)NCc3ccc(Oc4ccc(F)cc4)cc3)c(C)nc2c1` [ND-9758] as the molecule, how does the MIC90 (M. kansasii; M. kansasii) read?
The MIC90 was less than 0.195 µM.

And the MIC90 (M. marinum)?
Its MIC90 is 5.21 µM (≈ 2.03 µg/mL).

What about the MIC90 (M. bovis BCG; M. bovis BCG) of the same molecule?
The MIC90 was less than 0.195 µM.

What about the MIC90 (M. chelonae) of the same molecule?
The MIC90 was 6.07 µM (≈ 2.36 µg/mL).

What about the MIC90 (M. avium) of the same molecule?
The MIC90 was less than 0.195 µM.

Which results are given for `Cc1ccn2c(C(=O)NCc3cccc(OC(C)C)c3)c(C)nc2c1` [ND-9872]?
MIC90 (M. kansasii; M. kansasii): 0.71 µM (≈ 0.24 µg/mL); MIC90 (M. marinum): >50 µM; MIC90 (M. bovis BCG; M. bovis BCG): <0.195 µM; MIC90 (M. chelonae): >50 µM; MIC90 (M. avium): 0.71 µM (≈ 0.24 µg/mL)

For `Cc1c(CN2CCN(c3cccc(C(F)(F)F)c3)CC2)cc(-c2ccccc2)n1NC(=O)c1ccncc1` [LL-3858], which MIC (TB) is on record?
Its MIC is “MIC = 0.06 μg/mL”.

With `C[C@]1(COc2ccc(N3CCC(Oc4ccc(OC(F)(F)F)cc4)CC3)cc2)Cn2cc([N+](=O)[O-])nc2O1` [OPC-67683] as the molecule, how does the MIC (H37Rv TB [1]) read?
Its MIC is “MIC of 0.006-0.024 μg/mL”.

What about the MIC (MDR-TB [2]) of the same molecule?
Its MIC is “MIC of 0.006-0.024 μg/mL”.

What does the source list for `Cc1ccn2c(C(=O)NCc3ccccc3)c(C)nc2c1` [ND-8454, N-benzyl-2,7-dimethylimidazo[1,2-a]pyridine-3-carboxamide]?
activity against control organisms [3]: inactive; MIC (H37Rv TB [4]): 0.08 µg/mL and 0.286 µM; MIC90 (M. kansasii; Mycobacterium kansasii): 1.32 µM (≈ 0.369 µg/mL); MIC90 (M. marinum; Mycobacterium marinum): > 50 µM; toxicity to HeLa cells (HeLa cells): > 50 µM; MIC90 (M. bovis BCG; [7]): 0.33 µM (≈ 0.0922 µg/mL); IC50 [5]: > 128 µM; MIC90 (M. chelonae; Mycobacteroides chelonae): > 50 µM; MIC (MDR-TB [6]): 0.02 µg/mL (≈ 0.0716 µM); MIC90 (M. smegmatis): ≥ 5 µg/mL; MIC90 (M. avium; Mycobacterium avium): 1.32 µM (≈ 0.369 µg/mL)

Which results are given for `CC[C@@H](CO)NCCN[C@@H](CC)CO` [EMB, reference compound]?
MIC90 (M. kansasii; M. kansasii): <7.813 µM; MIC90 (M. marinum): 965.56 µM (≈ 197 µg/mL); MIC90 (M. bovis BCG; M. bovis BCG): <7.813 µM; MIC90 (M. chelonae): >2000 µM; MIC90 (M. avium): >2000 µM

What does the source list for `NNC(=O)c1ccncc1` [INH, Isoniazid, reference compound]?
MIC90 (M. kansasii; Mycobacterium kansasii): 5.82 µM (≈ 0.798 µg/mL); MIC90 (M. marinum; Mycobacterium marinum): > 500 µM; MIC90 (M. bovis BCG; [7]): < 1.95 µM; MIC90 (M. chelonae; Mycobacteroides chelonae): > 500 µM; MIC90 (M. avium; Mycobacterium avium): > 500 µM

Which MIC90 (M. kansasii; M. kansasii) does the source give for `Cc1ccc2nc(C)c(C(=O)NCc3ccc(S(C)(=O)=O)cc3)n2c1` [ND-9965] here?
The MIC90 was 6.03 µM (≈ 2.16 µg/mL).

And the MIC90 (M. marinum)?
Its MIC90 is greater than 50 µM.

What about the MIC90 (M. bovis BCG; M. bovis BCG) of the same molecule?
The MIC90 was 0.23 µM (≈ 0.0822 µg/mL).

And the MIC90 (M. chelonae)?
Its MIC90 is greater than 50 µM.

And the MIC90 (M. avium)?
Its MIC90 is 6.03 µM (≈ 2.16 µg/mL).

Which MIC (H37Rv TB [1]) does the source give for `COc1c(N2CCNC(C)C2)c(F)cc2c(=O)c(C(=O)O)cn(C3CC3)c12` (stereo not shown) [Gatifloxacin] here?
The MIC was “MIC = 0.03-1.56 μg/mL H37Rv TB”.

And the MIC (MDR-TB [2])?
Its MIC is “MIC = 3.12 μg/mL MDR-TB”.

Which MIC (H37Rv TB [1]) does the source give for `COc1nc2ccc(Br)cc2cc1[C@@H](c1ccccc1)[C@@](O)(CCN(C)C)c1cccc2ccccc12` [TMC207] here?
The MIC was “MIC = 0.06 μg/mL vs. H37Rv and MDR-TB”.

What about the MIC (MDR-TB [2]) of the same molecule?
The MIC was “MIC = 0.06 μg/mL vs. H37Rv and MDR-TB”.

Which MIC90 (M. kansasii; M. kansasii) does the source give for `Cc1ccn2c(C(=O)NCc3ncc(C(F)(F)F)cc3Cl)c(C)nc2c1` [ND-9902] here?
The MIC90 was 4.42 µM (≈ 1.69 µg/mL).

And the MIC90 (M. marinum)?
Its MIC90 is greater than 50 µM.

And the MIC90 (M. bovis BCG; M. bovis BCG)?
The MIC90 was 0.75 µM (≈ 0.287 µg/mL).

And the MIC90 (M. chelonae)?
The MIC90 was greater than 50 µM.

And the MIC90 (M. avium)?
The MIC90 was 4.42 µM (≈ 1.69 µg/mL).
